pIC50: −log10 of the molar value. Like-named read-outs stand apart in the source and are kept apart here.
Columns and labels:
[1] = target: T1, MAO-A (Rattus norvegicus, UniProt P21396); assay: biochemical; assay type: biochemical, Sprague-Dawley rat
T1 construct: human and rat tissue to obtain the isolated forms of monoamine oxidase A and B; from tissue
T1 sequence (P21396 1-526): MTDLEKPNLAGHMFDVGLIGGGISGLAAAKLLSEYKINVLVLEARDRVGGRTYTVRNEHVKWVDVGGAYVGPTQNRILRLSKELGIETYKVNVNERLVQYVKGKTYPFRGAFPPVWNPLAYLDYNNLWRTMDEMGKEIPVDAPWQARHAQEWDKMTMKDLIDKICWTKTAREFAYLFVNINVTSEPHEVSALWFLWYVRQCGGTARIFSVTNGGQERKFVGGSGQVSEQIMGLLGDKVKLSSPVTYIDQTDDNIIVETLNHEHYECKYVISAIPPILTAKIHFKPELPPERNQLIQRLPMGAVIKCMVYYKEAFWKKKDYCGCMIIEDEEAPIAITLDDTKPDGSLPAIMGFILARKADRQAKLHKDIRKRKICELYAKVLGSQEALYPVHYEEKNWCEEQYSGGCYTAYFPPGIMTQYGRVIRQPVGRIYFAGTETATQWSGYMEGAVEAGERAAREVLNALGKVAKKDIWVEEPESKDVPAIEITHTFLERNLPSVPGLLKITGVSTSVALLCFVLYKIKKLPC
Description: (§1) The mitochondrial portion of Sprague-Dawley rat was used to determine the MAO-A and MAO-B activity.
(§2) Determinations were made of the comparative MAO-A and MAO-B activity inhibition curves of the various compounds under study at time 0 and 30 min. by measuring the remaining activity to 5-HT and PEA as substrates.

[2] = target: T2, MAO-B (Rattus norvegicus, UniProt P19643); assay: MAO-B inhibition, mitochondrial portion of rat (IC50, time dependence, irreversibility), substrate PEA; assay type: biochemical, Sprague-Dawley rat; conditions: for pIC50: MAO-B (lines B..), substrate PEA, rat mitochondria
T2 construct: from tissue; host or cells: Sprague-Dawley rat liver, mitochondrial fraction
T2 sequence (P19643 1-520): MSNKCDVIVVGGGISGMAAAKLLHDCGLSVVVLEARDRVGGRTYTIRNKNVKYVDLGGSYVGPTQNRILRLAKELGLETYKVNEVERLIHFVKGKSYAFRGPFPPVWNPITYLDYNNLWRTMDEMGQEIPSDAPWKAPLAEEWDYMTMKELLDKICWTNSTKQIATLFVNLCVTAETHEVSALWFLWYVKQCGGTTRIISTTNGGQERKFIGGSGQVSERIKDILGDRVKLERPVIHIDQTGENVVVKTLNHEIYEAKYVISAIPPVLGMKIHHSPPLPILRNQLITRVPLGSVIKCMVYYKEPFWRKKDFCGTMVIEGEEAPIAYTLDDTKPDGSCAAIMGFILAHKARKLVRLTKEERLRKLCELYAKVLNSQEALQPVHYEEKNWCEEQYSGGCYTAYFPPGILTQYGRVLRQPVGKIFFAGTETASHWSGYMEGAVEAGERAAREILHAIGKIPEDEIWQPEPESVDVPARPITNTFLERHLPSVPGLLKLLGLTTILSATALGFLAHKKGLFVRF
Description: as §1, §2

[3] = target: T2, MAO-B; assay: Kinetic parameters of suicide-type inhibition, MAO-B (selectivity K1 MAO-A / K1 MAO-B); assay type: biochemical, Sprague-Dawley rat; conditions: selectivity for MAO-B
Text: K1 is the affinity constant of the first stage of the reaction and K1 MAO-A / K1 MAO-B the expression of the selectivity.
K^1cat is the velocity constant for the formation of the covalent irreversible complex during the second stage of the process. To compare the values of these constants towards the two forms of MAO, we express the inhibition efficacy as the ratio K^1cat/K1. The value of these constants (see Tables 2 and 3), is the result of three different experiments, with their corresponding SEM.

[4] = target: T3, dopamine carrier (Homo sapiens, UniProt Q01959); assay: Dopamine carrier inhibition in purified synaptosomes of human caudate; assay type: biochemical; conditions: human caudate synaptosomes, dopamine (DA) 0.1 µM; read-out: IC50(max)
T3 construct: This assay was carried out in purified synaptosomes of human caudate; from tissue; host or cells: post-mortem human caudate, purified synaptosomes
Description: This assay was carried out in purified synaptosomes of human caudate obtained using the same method as described by Rodríguez et al. 1987 Biochem Pharmac 36, 974-976.
The studies were carried out with the same inhibitors used in the rat tissue. The dopamine (DA) concentration was 0.1 µM, a value chosen from the kinetic constants obtained.

[5] = target: T4, MAO-B (Mus musculus, UniProt Q8BW75); assay: Ex vivo inhibition of brain MAO-B after i.p. administration
T4 sequence (Q8BW75 1-520): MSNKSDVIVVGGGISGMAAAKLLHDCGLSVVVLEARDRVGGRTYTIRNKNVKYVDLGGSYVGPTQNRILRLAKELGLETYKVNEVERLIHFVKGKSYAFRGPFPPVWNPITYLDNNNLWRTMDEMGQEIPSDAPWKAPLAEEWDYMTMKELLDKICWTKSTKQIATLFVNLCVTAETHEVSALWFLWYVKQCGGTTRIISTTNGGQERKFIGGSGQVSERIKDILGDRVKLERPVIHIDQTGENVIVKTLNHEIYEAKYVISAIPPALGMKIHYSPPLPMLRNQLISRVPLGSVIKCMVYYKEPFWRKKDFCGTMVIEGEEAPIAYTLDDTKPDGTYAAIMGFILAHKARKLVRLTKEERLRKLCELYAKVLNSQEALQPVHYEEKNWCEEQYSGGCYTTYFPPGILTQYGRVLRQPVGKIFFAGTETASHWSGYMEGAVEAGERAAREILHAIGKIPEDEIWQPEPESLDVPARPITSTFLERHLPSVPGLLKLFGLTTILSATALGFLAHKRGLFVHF
Description: The pharmacological assays were carried out on C57/BL mice. These animals are sensitive to the induction of the symptomatology of Parkinson's disease through the action of MPTP.
The animals were sacrificed by decapitation after 2 hours and the brains homogenised in potassium phosphate buffer 50 mM, pH 7.2. Determinations were made of the MAO-A and MAO-B activity in each case using radiometric methods.

[6] = test system: MPTP neurotoxin; assay: Protection against the neurotoxicity of MPTP (striatal DA and DOPAC levels); assay type: in vivo, mice of the C57/BL species; conditions: striate, FA-73 3 mg/Kg i.p. 2 h before MPTP HCl 30 mg/Kg i.p., MPTP repeated on day 2, 24 h after last MPTP
Description: Two hours later they were administered MPTP HCl (30 mg/Kg i.p.) and this dose was repeated on the second day. Twenty four hours after the last injection of MPTP the animals were sacrificed. The brains were dissected and determinations made of the dopamine (DA) and 3,4-dihydroxyphenylacetic acid (DOPAC) levels in the striate.

[7] = test system: ibotenic acid; assay: Protection against the neurotoxicity of ibotenic acid (brain acetylcholine); assay type: in vivo, Sprague-Dawley rats; conditions: homogenised rat brain; 3 mg/Kg i.p. 2 h before intracerebroventricular ibotenic acid; ibotenic acid alone 3%; depending on the dose
Description: One group of Sprague-Dawley rats was treated with compound FA-73 (3 mg/Kg, i.p.) followed two hours later by an stereotaxic injection of ibotenic acid into the cerebral ventricles at a dose that would induce an Alzheimer type of pathology. After sacrificing the animals, determinations were made of the acetylcholine (AC) in the homogenised brains.

T3 sequence (Q01959 whole entry): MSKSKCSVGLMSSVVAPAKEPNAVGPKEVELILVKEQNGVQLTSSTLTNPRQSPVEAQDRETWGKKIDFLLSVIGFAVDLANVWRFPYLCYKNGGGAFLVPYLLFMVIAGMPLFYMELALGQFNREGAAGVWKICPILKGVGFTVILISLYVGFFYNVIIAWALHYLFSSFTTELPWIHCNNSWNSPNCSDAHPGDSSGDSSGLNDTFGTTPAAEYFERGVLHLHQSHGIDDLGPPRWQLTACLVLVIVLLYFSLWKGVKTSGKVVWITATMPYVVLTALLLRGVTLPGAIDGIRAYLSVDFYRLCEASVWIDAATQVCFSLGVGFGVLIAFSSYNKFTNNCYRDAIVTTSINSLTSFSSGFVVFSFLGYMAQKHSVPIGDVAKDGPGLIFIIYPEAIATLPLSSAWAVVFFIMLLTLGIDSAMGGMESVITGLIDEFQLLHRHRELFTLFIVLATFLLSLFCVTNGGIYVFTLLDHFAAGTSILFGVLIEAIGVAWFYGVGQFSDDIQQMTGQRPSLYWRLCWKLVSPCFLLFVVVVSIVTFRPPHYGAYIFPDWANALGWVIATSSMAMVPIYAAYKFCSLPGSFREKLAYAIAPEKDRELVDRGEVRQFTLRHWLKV

C#CCNCc1cc2cc(OCc3ccccc3)ccc2[nH]1 [FA-73]
pIC50 [1]: 4.80
dependence of the inhibition on the incubation time ([1]; MAO-A): drop in the formation of product as a function of the time of incubation
irreversibility of the inhibition process ([1]; MAO-A, inhibitor concentrations close to the IC50): irreversibility
pIC50 ([1]; read-out: IC50 30 min., MAO-A (lines A..), substrate 5-HT, 30 min incubation, rat mitochondria): 5.90
pIC50 ([2]; IC50 0 min, 0 min incubation): 7.00
pIC50 ([2]; IC50 30 min., 30 min incubation): 7.82
dependence of the inhibition on the incubation time ([2]; MAO-B): drop in the formation of product as a function of the time of incubation
irreversibility of the inhibition process ([2]; MAO-B, inhibitor concentrations close to the IC50): irreversibility
K1 MAO-A/K1 MAO-B [3]: 1066.6
pIC50 [4]: 6.44
crossing of the hematoencephalic barrier ([5]; concluded from brain MAO-B inhibition after 4 mg/Kg i.p. in C57/BL mice): crosses the hematoencephalic barrier
MAO-B ACTIVITY ([5]; mouse brain homogenate 2 hours after i.p., l-deprenyl 10 mg/Kg, tested compound 4 mg/Kg, control 303): 16
DOPAC ([6]; control 0.98, MPTP alone 0.54): 0.93 ± 0.023 µg/g dry tissue
Dopamine (DA) ([6]; control 10.85, MPTP alone 3.13): 10.48 ± 0.085 µg/g dry tissue
acetylcholine level [7]: up to 85 % of the control
